{
  "source": "paper PMC5458187",
  "about": "“Inhibitor SBFI26 suppresses the malignant progression of castration-resistant PC3-M cells by competitively binding to oncogenic FABP5” (Oncotarget, 2017)",
  "key": {"[1]": {"biological_target": "wtrFABP5 (Homo sapiens, UniProt Q01469)", "sequence (Q01469 whole entry)": "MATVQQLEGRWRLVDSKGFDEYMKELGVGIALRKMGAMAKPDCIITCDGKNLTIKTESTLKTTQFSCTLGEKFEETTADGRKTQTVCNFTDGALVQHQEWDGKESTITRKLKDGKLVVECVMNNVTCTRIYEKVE", "assay": "DAUDA displacement assay (ligand binding)", "conditions": "for relative level of fluorescence intensity after adding ligand to the DAUDA-wtrFABP5 complex: 10 μM ligand, 2 μM DAUDA, 3 μM wtrFABP5, complex without ligand 2.65 ± 0.14; for Ki: displacement of 2 μM DAUDA from 3 μM wtrFABP5, ligand 0.5–20 μM, Ki = IC50/1+(DAUDA/Kd), read-out: inhibition constant Ki (binding affinity)", "source_text": "The fatty acid-binding ability of wtrFABP5 was examined by using the DAUDA displacement assay which used fatty acids and different chemical compounds to replace the fluorescently labelled fatty acid analogue DAUDA (Cayman). […] For each experiment, the fluorescence data were normalized to the peak fluorescent intensity, and then subtracted from the data of samples without protein. The data were fitted by nonlinear regression using GraphPad Prism software to a saturation binding curve model to estimate the apparent dissociation constant (Kd) and maximal fluorescence intensity (Bmax). […] The Ki of each ligand was determined using the equation Ki = IC50/1+ (DAUDA concentration /Kd)."}, "[2]": {"test_system": "p-PPARγ1 and p-PPARγ2 in PC3-M cells", "assay": "Western blot of phosphorylated PPARγ in PC3-M cells", "type": "cell-based, human", "conditions": "for reduction in level of p-PPARγ1 / reduction in level of p-PPARγ2: untreated set at 1"}, "[3]": {"test_system": "PC3-M cells inoculated into the right flank", "assay": "Subcutaneous nude mouse tumorigenicity assay", "type": "in vivo, nude mice", "experimental": "PC3-M cells (2 × 10^6) in 200 μL PBS were subcutaneously injected into the right flank region of the mouse (6–8 week old) to test the suppressive effect of the inhibitors on tumorigenicity. In the first round, 3 groups of mice (8 each) were used: 1) control with PBS; 2) 1mg/kg SBFI26, injected from the 1st day after cell inoculation; 3) 1mg/kg SBFI26, injected from the 7th day after cell inoculation. In the second round, 2 groups of mice (5 each) were used and at 7 days after the cell inoculation, each group was subjected to different intra-tumoural injections: 1) control with PBS; 2) PPARγ antagonist (GW9662, 1mg/kg) (Sigma). The injections were repeated every 2 days for 30 days, tumour size was measured every 3–4 days and the volume calculated by the formula of L× W×H×0.5236 [56]. Work was performed in accordance with UKCCCR guidelines under Home Office License PPL40/2963."}, "[4]": {"test_system": "PC3-M cells", "assay": "Cell viability MTT assay", "type": "cell-based, human", "conditions": "24 h", "experimental": "(§1) PC3-M cells (5 × 10^4) were plated in triplicate in 96 well plates and incubated overnight. Cells were treated with different concentrations of SBFI26 (25–125 μM) for 24 h. Cell viability was assessed using MTT assay, as described previously. The anti-proliferative effect of the best concentration for SBFI26 was determined after 6 days of treatment."}, "[5]": {"test_system": "PC3-M cells", "assay": "Soft-agar colony formation assay", "type": "cell-based, human", "conditions": "100 μM", "experimental": "Low melting agarose was seeded in 6-well plates and 5 × 10^4 cells/well layered on agar, followed by 200 μl of medium alone or medium with FABP5 inhibitor SBFI26. Colonies larger than 300 μm in each well were counted 2 weeks later in a similar way to that described previously."}, "[6]": {"test_system": "PPARγ", "design": "method as in PMID 23236415", "conditions": "cited from earlier work"}, "[7]": {"test_system": "PC3-M cells", "assay": "Proliferation MTT assay", "type": "cell-based, human", "conditions": "100 μM", "experimental": "as §1"}, "[8]": {"test_system": "p-PPARγ1 and p-PPARγ2 in 22RV1 cells", "assay": "Western blot of phosphorylated PPARγ in 22RV1 cells", "type": "cell-based, human", "conditions": "for effect on levels of p-PPARγ1 and 2: 22RV1, 24 h"}, "[9]": {"test_system": "PC3-M cells", "assay": "Boyden chamber invasion assay", "type": "cell-based, human", "conditions": "100 μM, 24 h", "experimental": "PC3-M cells in serum-free medium were seeded in the upper Boyden chamber (BD Biosciences) in triplicate at a density of 2.5 × 10^4 cells per well in serum-free medium. Complete medium was added to the lower chambers. After 3 hours of incubation, 100 μM SBFI26 was added to the upper chambers. After 24 h of incubation, cells that invaded the lower chambers were stained with crystal violet and counted with a cell counter."}, "[10]": {"test_system": "PC3-M cells", "assay": "Wound healing migration assay", "type": "cell-based, human", "conditions": "100 μM, 24 h; control gap closure 94%", "experimental": "Wound healing migration assay was carried out to evaluate the effect of SBFI26 on the migratory rate of PC3-M cells. Wounds were generated by scratching the monolayer cells with a blue pipette tip. The floating cells were removed by washing with PBS and inhibitors were added to the culture medium. The wound was photographed under the microscope at 0, 12 and 24 h after treatment and the wound widths were assessed by quantitative analysis using ImageJ software."}, "[11]": {"test_system": "fatty acid uptake of PC3-M cells", "assay": "Fatty acid uptake assay with BODIPY-labelled fatty acid", "type": "cell-based, human", "conditions": "30 min; for cells with BODIPY-labelled fatty acid uptake (M2): control 92.9%", "experimental": "Assay for fatty acid uptake was performed using red fluorescence-labelled BODIPY [57]. The fluorescence intensity from cells before and 30 minutes after adding BODIPY was measured to determine fatty acid uptake. In inhibition and competition experiments, different concentrations of unlabelled lead compound SBFI26 (50–200 μM) with the same concentration of labelled BODIPY were added directly to the highly malignant PC3-M cells."}, "[12]": {"test_system": "PC3-M-Luc8 cells implanted orthotopically into the prostate gland", "assay": "Orthotopic nude mouse assay of tumorigenicity and metastasis", "type": "in vivo, Balb/c nude mice", "experimental": "PC3-M cells were transfected with the pGL4.50 [luc2/CMV/Hygro] vector (Promega) using FuGene HD transfection reagent (Promega) following the manufacturer’s instructions. Individual colonies were isolated by ring cloning and 3 colonies that stably-expressed the highest bioluminescence signals were identified using D-luciferin (Promega) with a Varioskan Flash Reader (Thermo Scientific). Association of the luminescence intensity with the number of cells was assessed by an IVIS imaging system (Perkin Elmer). Cells (5 × 10^5) from PC3-M- luc2 colony were suspended in 30 μL PBS and orthotopically implanted into the dorsal prostate of 33 male Balb/c nude mice (Charles River, UK) (8–10 weeks old), as described previously. One week later, tumour-bearing mice were divided into 2 groups (8 each) and subjected to the following intraperitoneally injections: 1) control with PBS; 2) SBFI26, 1mg/kg. Injections were repeated every two days for 25 days and the metastatic loci were monitored weekly using the IVIS after mice were subcutaneously injected with D-luciferin (150 mg/kg). Bioluminescence images was analysed using the Living Imagine software (Xenogen) and the measurement recorded was based on total photons/second (p/s) within each defined region of interest."}},
  "note": "Several values for one entry are separate records, joined by “and”; a condition that tells them apart may be missing. Equal entries are not always repeated.",
  "data": [
    {"compound": "CN(C)c1cccc2c(S(=O)(=O)NCCCCCCCCCCC(=O)O)cccc12", "note": "[DAUDA]", "values": [
      {"measurement": "Kd", "setting": "[1]; 3 μM wtrFABP5 titrated with DAUDA 0.4–3 μM, ex 345/em 530 nm, read-out: apparent dissociation constant (Kd) of DAUDA to wtrFABP5", "result": "1860 ± 160", "unit": "nM"},
      {"measurement": "maximal fluorescence intensity (Bmax)", "setting": "[1]; DAUDA titration to 3 μM wtrFABP5", "result": 3.579}
    ]},
    {"compound": "O=C(Nc1ccccc1)c1cc([N+](=O)[O-])ccc1Cl", "note": "[GW9662]", "values": [
      {"measurement": "reduction in level of p-PPARγ1", "setting": "[2]; 24 hours", "result": 52, "unit": "%"},
      {"measurement": "reduction in level of p-PPARγ2", "setting": "[2]; 24 hours", "result": 51, "unit": "%"},
      {"measurement": "suppression of tumour size vs control", "setting": "[3]; GW9662 1 mg/kg from day 7", "result": 67, "unit": "%"},
      {"measurement": "average size of tumours", "setting": "[3]; GW9662 1 mg/kg intra-tumoural from day 7, n = 5, control 774 ± 202 mm^3", "result": "252 ± 84", "unit": "mm^3"}
    ]},
    {"compound": "O=C(O)C1C(c2ccccc2)C(C(=O)Oc2cccc3ccccc23)C1c1ccccc1", "note": "(stereo not drawn) [SBFI26, α-truxillic acid 1-naphthyl mono-ester]", "values": [
      {"measurement": "reduction in cell numbers", "setting": "[4]; 100 μM", "result": 26, "unit": "%"},
      {"measurement": "concentration producing maximum suppression of viability", "setting": "[4]; MTT", "result": 100, "unit": "µM"},
      {"measurement": "inhibition of colony formation", "setting": "[5]; 2 weeks, vs control", "result": 100, "unit": "%"},
      {"measurement": "number of colonies formed in soft agar", "setting": "[5]; after 2 weeks, control 124 ± 18", "result": 0},
      {"measurement": "activity at PPARγ", "setting": "[6]", "result": "weak agonist of PPARγ"},
      {"measurement": "reduction of proliferation rate", "setting": "[7]", "result": 17, "unit": "times"},
      {"measurement": "average reduction in both PPARγ activated isoforms", "setting": "[8]; 22RV1", "result": 33.5, "unit": "%"},
      {"measurement": "effect on levels of p-PPARγ1 and 2", "setting": "[8]", "result": "suppressed the levels of both p-PPARγ isoforms"},
      {"measurement": "suppression of invasion", "setting": "[9]; vs control", "result": 95.5, "unit": "%"},
      {"measurement": "mean number of invaded cells", "setting": "[9]; control 22 ± 3", "result": "1 ± 1"},
      {"measurement": "reduction in wound size", "setting": "[10]", "result": 19, "unit": "%"},
      {"measurement": "average reduction in both PPARγ activated isoforms", "setting": "[2]", "result": "about 50%"},
      {"measurement": "reduction in level of p-PPARγ1", "setting": "[2]; 24 hours", "result": 44, "unit": "%"},
      {"measurement": "reduction in level of p-PPARγ2", "setting": "[2]; 24 hours", "result": 46, "unit": "%"},
      {"measurement": "unstained cells (M1)", "setting": "[11]; 50 μM", "result": 20.76, "unit": "%"},
      {"measurement": "cells with BODIPY-labelled fatty acid uptake (M2)", "setting": "[11]; 50 μM", "result": 79.24, "unit": "%"},
      {"measurement": "unstained cells (M1)", "setting": "[11]; 100 μM", "result": 32.31, "unit": "%"},
      {"measurement": "cells with BODIPY-labelled fatty acid uptake (M2)", "setting": "[11]; 100 μM", "result": "67.7% and 67.69%"},
      {"measurement": "unstained cells (M1)", "setting": "[11]; 150 μM", "result": 30.88, "unit": "%"},
      {"measurement": "cells with BODIPY-labelled fatty acid uptake (M2)", "setting": "[11]; 150 μM", "result": 69.12, "unit": "%"},
      {"measurement": "unstained cells (M1)", "setting": "[11]; 200 μM", "result": 30.79, "unit": "%"},
      {"measurement": "cells with BODIPY-labelled fatty acid uptake (M2)", "setting": "[11]; 200 μM", "result": 69.21, "unit": "%"},
      {"measurement": "suppression of tumour volume vs control", "setting": "[3]; SBFI26 1 mg/kg for 31 days", "result": 52, "unit": "%"},
      {"measurement": "average tumour volume on termination", "setting": "[3]; SBFI26 1 mg/kg for 31 days, n = 8, control 627 ± 120 mm^3", "result": "302 ± 86", "unit": "mm^3"},
      {"measurement": "suppression in metastasis incidence compared to control", "setting": "[12]; 25 days, 1 mg/kg i.p.", "result": 50, "unit": "%"},
      {"measurement": "mice that produced visceral metastasis (number/total)", "setting": "[12]; 25 days, 1 mg/kg i.p., control 7/7", "result": "4/8"},
      {"measurement": "mice that produced visceral metastasis", "setting": "[12]; 25 days, 1 mg/kg i.p., control 100%", "result": 50, "unit": "%"},
      {"measurement": "metastasis sites by histological staining", "setting": "[12]; H&E, control: all mice, mainly liver and lung", "result": "half of the mice developed liver metastases with no metastasis in the lung"},
      {"measurement": "bioluminescence signal", "setting": "[12]; day 25, 1 mg/kg intraperitoneally, control 31.5 × 10^8", "result": "6.66 × 10^8 p/sec/cm^2"}
    ]},
    {"compound": "CCCCC/C=C\\C/C=C\\CCCCCCCC(=O)O", "note": "[linoleic acid]", "values": [
      {"measurement": "relative level of fluorescence intensity after adding ligand to the DAUDA-wtrFABP5 complex", "setting": "[1]", "result": "1.37 ± 0.07"},
      {"measurement": "Ki", "setting": "[1]", "result": 1570, "unit": "nM"}
    ]},
    {"compound": "CCCCCCCC/C=C\\CCCCCCCC(=O)O", "note": "[oleic acid]", "values": [
      {"measurement": "relative level of fluorescence intensity after adding ligand to the DAUDA-wtrFABP5 complex", "setting": "[1]", "result": "1.68 ± 0.09"},
      {"measurement": "Ki", "setting": "[1]", "result": 1890, "unit": "nM"}
    ]},
    {"compound": "CN(CCOc1ccc(CC2SC(=O)NC2=O)cc1)c1ccccn1", "note": "(centres unmarked) [rosiglitazone]", "values": [
      {"measurement": "effect on levels of p-PPARγ isoforms", "setting": "[2]; 24 hours", "result": "significantly increased levels of both p-PPARγ isoforms"}
    ]},
    {"compound": "wtrFABP5: FABP5 protein (wtrFABP5) used as binding target and as treatment of 22RV1 cells", "values": [
      {"measurement": "effect on levels of p-PPARγ1 and 2", "setting": "[8]", "result": "significantly increased levels of both p-PPARγ1 and 2"}
    ]}
  ]
}
